Results from patent US11518758B2, “Heteroarylaminopyrimidine amide autophagy inhibitors and methods of use thereof” (Deciphera Pharmaceuticals, LLC, priority 2019, dated 2022).

Key:
[1] = molecular target: T1, ULK1 kinase (Homo sapiens, UniProt O75385); assay: Biochemical assay for ULK1.2 (coupled pyruvate kinase/lactate dehydrogenase assay); conditions: 19 nM ULK1 (Eurofins), myelin basic protein, 1 mM ATP
T1 construct: purchased Eurofins 14-959
T1 sequence (O75385 with tags, fused parts or gaps): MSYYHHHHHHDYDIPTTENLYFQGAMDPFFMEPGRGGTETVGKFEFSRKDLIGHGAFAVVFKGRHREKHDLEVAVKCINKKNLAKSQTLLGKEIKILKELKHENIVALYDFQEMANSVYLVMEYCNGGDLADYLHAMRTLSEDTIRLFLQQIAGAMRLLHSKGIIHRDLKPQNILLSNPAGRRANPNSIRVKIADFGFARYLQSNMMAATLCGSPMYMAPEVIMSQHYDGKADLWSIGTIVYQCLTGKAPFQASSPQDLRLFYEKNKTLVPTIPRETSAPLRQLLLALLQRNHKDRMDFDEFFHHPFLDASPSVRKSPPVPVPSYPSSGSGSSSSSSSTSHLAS
How it was run: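 NADH-coupled PK/LDH read-out at 340 nm, run with 19 nM ULK1, 0.25 mg/mL myelin basic protein and 1 mM ATP. Buffer was 100 mM Tris pH 7.5 with 15 mM MgCl2 and 1% DMSO final. Monitoring was continuous for 6 hours at 30° C; rates from the 2-3 h window were converted to percent inhibition and fitted to a four-parameter curve for IC50.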

[2] = system: phospho-Serine 318 ATG13 (pATG13), ULK kinase substrate, in A549 (KRAS mutant) cells; assay: pATG13 levels of mutant KRas A549 cells after treatment with ULK inhibitors in combination with trametinib (ELISA); assay type: cell-based, human; conditions: with 250 nM trametinib
How it was run: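 A549 cells grown overnight were treated overnight at 37 °C with a dose response of test compound plus 250 nM trametinib (final) or DMSO. Lysates were assayed by sandwich ELISA, with total ATG13 capture and biotinylated pS318-ATG13 detection read at 450 nm minus 540 nm, giving % phosphorylation against control and IC50.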

[3] = system: phospho-Serine 318 ATG13 (pATG13) in MiaPaCa-2 cells; assay: pATG13 levels of mutant KRas MiaPaCa-2 cells after treatment with ULK inhibitors in combination with trametinib (ELISA); assay type: cell-based, human
Procedure: Example 178. pATG13 Levels of Mutant KRas MiaPaCa-2 Cells after Treatment with ULK Inhibitors in Combination with Trametinib
(§1) MiaPaCa-2 human pancreatic cancer cells (10000 cells/well) were added to a 384-well tissue-culture treated plate in 50 μL of pre-warmed DMEM medium supplemented with 10% characterized fetal bovine serum (Invitrogen, Carlsbad, Calif.), 100 units/mL penicillin G, 100 μg/mL streptomycin, and 2.5% Horse Serum and allowed to grow overnight at 37° C., 5% CO2, and 95% humidity. The following day, 10 μL of media containing trametinib or DMSO as a control was added to wells. The final concentration of trametinib in wells was 250 nM. A dose response of a test compound (0.6 μL per well) was added. DMSO (0.6 μL) was added to control wells. The plate was briefly shaken to mix wells and then incubated at 37° C. overnight. The next day, the media was aspirated and cells were washed with Dulbecco's Phosphate Buffered Saline (Gibco). Cells were lysed using MPER lysis buffer (Pierce, Rockford, Ill.) containing Halt Phosphatase and Protease Inhibitors (Pierce, Rockford, Ill.) and Phosphatase inhibitor cocktail 2 (Sigma, St. Louis, Mo.) at 4° C. for 10 minutes with shaking.
(§2) Cellular levels of phospho-Serine 318 ATG13 (pATG13) were measured via an ELISA method. Total ATG13 Antibody (Cell Signaling Cat #13273) was used to coat the wells. The plate was incubated at 4° C. overnight and washed with ELISA wash buffer (Biolegend Cat #421601). The wells were then blocked with assay diluent (Biolegend Cat #421203) for 1 hour at room temperature. Plate wells were washed with ELISA wash buffer. Cell lysate was added to wells and incubated at room temperature for 2 hours. Plate wells were washed with ELISA wash buffer. Biotinylated pS318-ATG13 antibody (Rockland Immunochemicals Cat #600-401-C49) was diluted in assay diluent and added to each well and incubated at room temperature for 1 hour. Plate wells were washed with ELISA wash buffer. Streptavidin linked to horseradish peroxidase (Thermo Fisher Cat #21140) was diluted in assay diluent and added to each well and incubated at room temperature for 1 hour. Plate wells were washed with ELISA wash buffer. High sensitivity TMB substrate (Biolegend Cat #421101) was added to each well and incubated at room temperature for 20 minutes. The reaction was stopped with 2N Sulfuric Acid. The plate was analyzed at on a plate reader measuring absorbance at 450 nm and 540 nm (background). Signal was calculated by first subtracting the background absorbance at 540 nm from the absorbance at 450 nm for each well. Next, the background corrected absorbance at 450 nm from blank wells was subtracted from test wells. Data was compared to control wells to determine % ATG13 phosphorylation. GraphPad Prism was used to calculate IC50 values.

[4] = system: phospho-Serine 318 ATG13 (pATG13) in HCT-116 cells; assay: pATG13 levels of mutant KRas HCT-116 cells after treatment with ULK inhibitors in combination with trametinib (ELISA); assay type: cell-based, human
Procedure: Example 179. pATG13 Levels of Mutant KRas HCT-116 Cells after Treatment with ULK Inhibitors in Combination with Trametinib
as §1, with “HCT-116” for “MiaPaCa-2”, “colon” for “pancreatic”, “G, and” for “G,”, “streptomycin” for “streptomycin, and 2.5% Horse Serum”
as §2

CCc1nn(C2CCN(C)CC2)cc1Nc1ncc(C(F)(F)F)c(NCCCN2CCCOCC2=O)n1 [Example 109]
IC50 [1]: 25 to 100 nM
IC50 [2]: 100 to 300 nM
IC50 [3]: 100 to 300 nM
IC50 [4]: 10 to 100 nM
